Assay results as given in article PMC10974795 (2024).

System: Apt-WO-06 (AWO-06) (DNA, aptamer) GTGAGTTTACATGGGGTCCTATAGGCGAACAATCG
Assay: graphene oxide fluorescence recovery
Conditions: buffer composition not stated; aptamer 0.5-30 nM titrated; displaced from graphene oxide; apparent

Kd: 28.16 nM
SMILES: CC1COc2c(N3CCN(C)CC3)c(F)cc3c(=O)c(C(=O)O)cn1c23 (stereo not shown)
